Like-named read-outs stand apart in the source and are kept apart here.
Experiments:
[1] = test system: Carrageenin-induced paw edema in the rat; test: Carrageenin paw edema in the rat; format: in vivo; conditions: for % inhibition vs controls, AUC (paw edema): AUC of paw volume against time
Experimental: Paw edema was induced in male rats fasted for 18 h but with free access to water, by the method of WINTER et al. (Winter C. A. et al. Proc. Soc. Exp. Biol. Med. 111, 544, 1962) injecting 0.1 ml carrageenin 1% in physiological saline into the right hind paw aponeurosis.
60 min before induction of edema the drugs suspended in 0.2% Tween
80 aqueous solution were dosed by gastric tube (20 ml/Kg); the controls received the vehicle only.
The volume of the right paw was measured by plethysmography immediately before (time 0) and 1, 2, 3, 4, 6 h after subplantar injection of the irritant.
The area under the curve expressing the paw volume plotted against time (AUC) was calculated for each animal.
The results, expressed as percent inhibition of edema development in treated animals as compared to the controls and as ED40 values obtained from the regression lines for dose-AUC, are reported in Table 2.

[2] = Determination of the therapeutical index (UD50/ED40); format: in vivo, rat; conditions: gastric ulcers UD50 / paw edema ED40
Experimental: From the UD50 /ED40 ratio (antiinflammatory activity values obtained from the regression lines for dose--AUC) the therapeutic index were calculated (Table 5).

[3] = test system: phenylquinone writhings in the mouse; test: Phenylquinone writhings in the mouse; format: in vivo; conditions: for ED50: Mus musculus, from dose-response curves; for ED50 / % inhibition vs controls (writhings) / No. of writhings (X ± SE): oral
Experimental: The method used was that of SIEGMUND et al. (Siegmund et al. J. Pharmacol. Exp. Ther. 119, 184, 1957) modified (Arzneim. Forsch. 31(1), 87, 1981).
Male mice, 19-22 g, fasted for 18 h with free access to water, received the test drugs suspended in 0.2% Tween 80 aqueous solution (10 ml/Kg) by esophageal tube, the controls receiving the vehicle only.
One hour later all the animals were given an intraperitoneal injection of 0.02% phenylquinone solution in 5% aqueous ethanol (10 ml/Kg).
A `blind` observer recorded the number of writhings in each animal from the 5th to the 15th min after phenylquinone administration.

[4] = Acute toxicity, single oral administration; conditions: mouse, in vivo, read-out: LD50 approx
Experimental: The toxicity for single administration has been determined by the oral route in IVa:NMRI (SPF) fasted male mice, with water ad libitum, 18 hours before the experiment.

[5] = test system: gastric ulcers in the rat; test: Acute effect on gastrointestinal tract: gastric ulcers in the rat; format: in vivo; conditions: for Potency ratio relative to timegadine: gastric ulcers, UD50; for Gastric ulcers (X ± SE), No. / Gastric ulcers (X ± SE), mm / Rats with gastric ulcers: oral; for Gastric ulcers (X ± SE), No.: number of ulcerated spots; for Gastric ulcers (X ± SE), mm: sum of maximum diameters; for Rats with gastric ulcers: ulceration 2 mm and over
Experimental: (§1) Male rats weithing 250-280 g were starved for 18 h but allowed free access to water and the drugs were delivered by esophageal tube (suspension in 0.2% Tween 80 aqueous solution, 10 ml/Kg).
(§2) Control animals received the vehicle only (10 ml/Kg).
(§3) Five hours after drug administration the rats were killed.
(§4) The stomach was slit along the lesser curvature, washed under running water and examined for haemorrhagic lesions in the glandular part of the mucosa: these lesions will be conventionally defined as `ulcers`.
(§5) The following were recorded:
(§6) (a) the sum of the maximum diameters of all the ulcerated spots;
(§7) (b) the number of ulcerated spots.
(§8) The UD50 was calculated by the method of LITCHFIELD and WILCOXON (Litchfield J. T., Wilcoxon F. J. Pharm. Exp. Ther. 96, 99-113, 1949), all animals with gastric lesion whose sum (a) was 2 mm or more being rated as `ulcerated`.

[6] = as above; format: in vivo; conditions: rat, in vivo, po
Experimental: as §1, §2, §3, §4, §5, §6, §7, §8

[7] = Rattus norvegicus, oral, from regression lines for dose-AUC (Table 2), read-out: ED40
[8] = restated in Table 5, from regression lines for dose-AUC

With CSc1cc(NC(=Nc2nccs2)NC2CCCCC2)c2ccccc2n1 [Compound I, N-cyclohexyl-N"-4-(2-methylthioquinolyl)-N'-2-thiazolyl-guanidine] the ED40 [1, 7] was 111 µmol/kg, the “Potency ratio relative to timegadine” value ([1]; carrageenin paw edema, ED40 (Table 2)) was 1.32 and the “antiinflammatory activity compared with timegadine” value ([1]; in words) was “higher than those of timegadine”. The “% inhibition vs controls (paw edema), 1 h” value (shortened to “% inhibition … 1 h”) ([1]; oral, 30 μmol/kg) was 4%, the “% inhibition vs controls (paw edema), 2 h” value (from here on “% inhibition … 2 h”) ([1]; oral, 30 μmol/kg) was 47% and the “% inhibition vs controls (paw edema), 3 h” value (“% inhibition … 3 h” for short) ([1]; oral, 30 μmol/kg) was 40%. The “% inhibition vs controls (paw edema), 4 h” value (“% inhibition … 4 h” for short) ([1]; oral, 30 μmol/kg) was 28%, the “% inhibition vs controls (paw edema), 6 h” value (“% inhibition … 6 h” for short) ([1]; oral, 30 μmol/kg) was 8% and the “% inhibition vs controls, AUC (paw edema)” value ([1]; oral, 30 μmol/kg) was 27.9%. The “% inhibition … 1 h” value ([1]; oral, 91 μmol/kg) was 13%, the “% inhibition … 2 h” value ([1]; oral, 91 μmol/kg) was 51% and the “% inhibition … 3 h” value ([1]; oral, 91 μmol/kg) was 48%. For the same compound, the “% inhibition … 4 h” value ([1]; oral, 91 μmol/kg) was 42%, the “% inhibition … 6 h” value ([1]; oral, 91 μmol/kg) was 17% and the “% inhibition vs controls, AUC (paw edema)” value ([1]; oral, 91 μmol/kg) was 37.3%. For the same compound, the “% inhibition … 1 h” value ([1]; oral, 274 μmol/kg) was 17%, the “% inhibition … 2 h” value ([1]; oral, 274 μmol/kg) was 53% and the “% inhibition … 3 h” value ([1]; oral, 274 μmol/kg) was 58%. For the same compound, the “% inhibition … 4 h” value ([1]; oral, 274 μmol/kg) was 56%, the “% inhibition … 6 h” value ([1]; oral, 274 μmol/kg) was 33% and the “% inhibition vs controls, AUC (paw edema)” value ([1]; oral, 274 μmol/kg) was 49.0%. For the same compound, the ED40 [1, 8] was 111 µmol/kg, the “T.I. (UD50/ED40)” value [2] was 7.99 and the ED50 [3] was 18.7 µmol/kg. The “analgesic activity compared with timegadine” value ([3]; in words) was “higher than those of timegadine”, the “% inhibition vs controls (writhings)” value ([3]; 18.3 μmol/Kg) was 47.0% and the “No. of writhings (X ± SE)” value ([3]; 18.3 μmol/Kg) was 19.5 ± 4.8. For the same compound, the “% inhibition vs controls (writhings)” value ([3]; 55 μmol/Kg) was 79.3%, the “No. of writhings (X ± SE)” value ([3]; 55 μmol/Kg) was 7.6 ± 2.4 and the “% inhibition vs controls (writhings)” value ([3]; 164 μmol/Kg) was 96.5%. The “No. of writhings (X ± SE)” value ([3]; 164 μmol/Kg) was 1.3 ± 0.5, the “Potency ratio relative to timegadine” value ([3]; phenylquinone writhings, ED50) was 3.1 and the LD50 ([4]; po) was over 1000 mg/kg. For the same compound, the “Potency ratio relative to timegadine” value [5] was 0.47, the “gastric irritant potential compared with timegadine” value ([5]; in words) was “lesser gastric irritant potential” and the “Gastric ulcers (X ± SE), No.” value ([5]; 115 μmol/Kg) was 0.5 ± 0.3. For the same compound, the “Gastric ulcers (X ± SE), mm” value ([5]; 115 μmol/Kg) was 0.5 ± 0.3 mm, the “Rats with gastric ulcers” value ([5]; 115 μmol/Kg) was 1/10 and the “Gastric ulcers (X ± SE), No.” value ([5]; 230 μmol/Kg) was 0.6 ± 0.3. For the same compound, the “Gastric ulcers (X ± SE), mm” value ([5]; 230 μmol/Kg) was 1.2 ± 0.8 mm, the “Rats with gastric ulcers” value ([5]; 230 μmol/Kg) was 1/10 and the “Gastric ulcers (X ± SE), No.” value ([5]; 461 μmol/Kg) was 2.1 ± 1.0. For the same compound, the “Gastric ulcers (X ± SE), mm” value ([5]; 461 μmol/Kg) was 3.8 ± 1.8 mm, the “Rats with gastric ulcers” value ([5]; 461 μmol/Kg) was 4/10 and the “Gastric ulcers (X ± SE), No.” value ([5]; 922 μmol/Kg) was 4.8 ± 1.5. The “Gastric ulcers (X ± SE), mm” value ([5]; 922 μmol/Kg) was 8.7 ± 3.5 mm, the “Rats with gastric ulcers” value ([5]; 922 μmol/Kg) was 5/10 and the TD50 at 5 h [6] was 887 µmol/kg.
With Cc1cc(/N=C(\Nc2nccs2)NC2CCCCC2)c2ccccc2n1 [timegadine, N-cyclohexyl-N"-4-(2-methylquinolyl)-N'-2-thiazolyl guanidine, reference compound] the ED40 [1, 7] was 147 µmol/kg, the “% inhibition … 1 h” value ([1]; oral, 30 μmol/kg) was 17% and the “% inhibition … 2 h” value ([1]; oral, 30 μmol/kg) was 18%. The “% inhibition … 3 h” value ([1]; oral, 30 μmol/kg) was 11%, the “% inhibition … 4 h” value ([1]; oral, 30 μmol/kg) was 15% and the “% inhibition … 6 h” value ([1]; oral, 30 μmol/kg) was 4%. For the same compound, the “% inhibition vs controls, AUC (paw edema)” value ([1]; oral, 30 μmol/kg) was 12.3%, the “% inhibition … 1 h” value ([1]; oral, 91 μmol/kg) was 38% and the “% inhibition … 2 h” value ([1]; oral, 91 μmol/kg) was 51%. The “% inhibition … 3 h” value ([1]; oral, 91 μmol/kg) was 30%, the “% inhibition … 4 h” value ([1]; oral, 91 μmol/kg) was 27% and the “% inhibition … 6 h” value ([1]; oral, 91 μmol/kg) was 9%. For the same compound, the “% inhibition vs controls, AUC (paw edema)” value ([1]; oral, 91 μmol/kg) was 28.4%, the “% inhibition … 1 h” value ([1]; oral, 274 μmol/kg) was 33% and the “% inhibition … 2 h” value ([1]; oral, 274 μmol/kg) was 55%. The “% inhibition … 3 h” value ([1]; oral, 274 μmol/kg) was 58%, the “% inhibition … 4 h” value ([1]; oral, 274 μmol/kg) was 57% and the “% inhibition … 6 h” value ([1]; oral, 274 μmol/kg) was 44%. The “% inhibition vs controls, AUC (paw edema)” value ([1]; oral, 274 μmol/kg) was 52.9%, the ED40 [1, 8] was 147 µmol/kg and the “T.I. (UD50/ED40)” value [2] was 2.83. The ED50 [3] was 58.9 µmol/kg, the “% inhibition vs controls (writhings)” value ([3]; 18.3 μmol/Kg) was 26.1% and the “No. of writhings (X ± SE)” value ([3]; 18.3 μmol/Kg) was 27.2 ± 4.1. For the same compound, the “% inhibition vs controls (writhings)” value ([3]; 55 μmol/Kg) was 36.4%, the “No. of writhings (X ± SE)” value ([3]; 55 μmol/Kg) was 23.4 ± 4.6 and the “% inhibition vs controls (writhings)” value ([3]; 164 μmol/Kg) was 82.1%. The “No. of writhings (X ± SE)” value ([3]; 164 μmol/Kg) was 6.6 ± 2.9, the LD50 ([4]; oral, single administration, male mice, interpolation on Probits paper) was over 1000 mg/kg and the “Potency ratio relative to timegadine” value [5] was 1. For the same compound, the “Gastric ulcers (X ± SE), No.” value ([5]; 115 μmol/Kg) was 0.3 ± 0.2, the “Gastric ulcers (X ± SE), mm” value ([5]; 115 μmol/Kg) was 0.4 ± 0.2 mm and the “Rats with gastric ulcers” value ([5]; 115 μmol/Kg) was 0/10. The “Gastric ulcers (X ± SE), No.” value ([5]; 230 μmol/Kg) was 0.8 ± 0.3, the “Gastric ulcers (X ± SE), mm” value ([5]; 230 μmol/Kg) was 1.3 ± 0.7 mm and the “Rats with gastric ulcers” value ([5]; 230 μmol/Kg) was 2/10. For the same compound, the “Gastric ulcers (X ± SE), No.” value ([5]; 461 μmol/Kg) was 4.4 ± 1.5, the “Gastric ulcers (X ± SE), mm” value ([5]; 461 μmol/Kg) was 6.7 ± 2.3 mm and the “Rats with gastric ulcers” value ([5]; 461 μmol/Kg) was 6/10. For the same compound, the “Gastric ulcers (X ± SE), No.” value ([5]; 922 μmol/Kg) was 9.4 ± 1.8, the “Gastric ulcers (X ± SE), mm” value ([5]; 922 μmol/Kg) was 18.5 ± 4.4 mm and the “Rats with gastric ulcers” value ([5]; 922 μmol/Kg) was 9/10. It also gave a TD50 at 5 h [6] of 413 µmol/kg.
